Literature values in patent publication US20030225048A1, “Sulfatase inhibiting continuous progestogen contraceptive regimens” (priority 2002, published 2003).

Conditions: humans; norelgestromin is the major metabolite

C#C[C@]1(OC(C)=O)CC[C@H]2[C@@H]3CCC4=CC(=NO)CC[C@@H]4[C@H]3CC[C@@]21CC (mixture of isomers) [norgestimate]
norgestimate converted to norelgestromin in vivo: ≥ 80%
